Measured values: US10301629B2, “Structure, manufacturing and uses of human-derived cell-permeable peptides conjugated with specific biologically active cargo peptides” (priority 2013, dated 2019)

System: cytokine response to LPS
Experiment: Mouse endotoxin (LPS) challenge, peptide pretreatment 30 minutes prior, plasma cytokines
Details: peptide 500 micrograms per mouse, dexamethasone 3 mg/kg, PPL-002 p<0.01
Procedure: The ability of peptide pretreatment to inhibit the inflammatory cytokine response or stimulate the anti-inflammatory cytokine response to LPS was determined 2 hours after LPS injection (FIG. 10).
Peptides were dosed both i.p. and i.v. at 500 micrograms per mouse (10 mg/kg) 30 minutes prior to challenge by injection of endotoxin (LPS) at a dose of 50 micrograms/kg.

SMILES: C[C@@H]1C[C@H]2[C@@H]3CCC4=CC(=O)C=C[C@]4(C)[C@@]3(F)[C@@H](O)C[C@]2(C)[C@@]1(O)C(=O)CO [Dexamethasone, dexamethasone, reference compound]
- IL-10 level after LPS challenge, i.p. pretreatment: no effect
